From patent publication US5569665A, “Peptidyl derivatives and their use as metalloproteinases inhibitors” (Celltech Limited, priority 1992, dated 1996)
Where a name gives a salt, the structure may show the parent alone.

Key:
Assay type in all cases: biochemical
Gelatinase -72 KD = biological target: T1, Gelatinase -72 KD (Homo sapiens, UniProt P08253); experiment: Fluorimetric enzyme inhibition assay with peptide substrate (Example A), gelatinase; conditions: true Ki from plot of Ki (app) vs. [S], y-axis intercept; pH 7.5, overnight
T1 sequence (P08253 110-660): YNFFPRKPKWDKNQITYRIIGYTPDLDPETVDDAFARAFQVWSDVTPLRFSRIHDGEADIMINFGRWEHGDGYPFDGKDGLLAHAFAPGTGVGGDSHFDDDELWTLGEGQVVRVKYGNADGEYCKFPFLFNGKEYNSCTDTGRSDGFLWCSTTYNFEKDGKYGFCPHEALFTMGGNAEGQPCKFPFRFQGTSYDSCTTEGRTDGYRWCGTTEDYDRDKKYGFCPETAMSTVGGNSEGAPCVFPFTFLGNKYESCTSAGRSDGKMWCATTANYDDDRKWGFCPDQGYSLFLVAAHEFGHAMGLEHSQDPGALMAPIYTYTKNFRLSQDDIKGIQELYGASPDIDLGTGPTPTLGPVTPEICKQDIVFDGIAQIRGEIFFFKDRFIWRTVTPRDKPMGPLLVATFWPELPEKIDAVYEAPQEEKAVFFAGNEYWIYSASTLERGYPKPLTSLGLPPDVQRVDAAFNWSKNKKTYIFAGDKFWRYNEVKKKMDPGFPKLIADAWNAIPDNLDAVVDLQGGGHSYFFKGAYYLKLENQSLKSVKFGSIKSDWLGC
Experimental: (§1) All enzyme assays to determine Ki values were performed using the peptide substrate Dnp-Pro-Leu-Gly-Trp-Ala-D-Arg-NH2. (M. Sharon Stock and Rober D. Gray, JBC 264, 4277-81, 1989). The enzymes cleave at the Gly-Leu bond which can be followed fluorimetrically by measuring the increase in Trp fluorescence emission associated with the removal of the quenching dinitrophenol (Dnp) group.
(§2) Essentially, enzyme (e.g. gelatinase, stromelysin, coilagenase) at 0.08-2 nM; a range of inhibitor concentrations (0.1-50×Ki) and substrate (approx. 20 μm) are incubated overnight in 0.1M Tris/HCl buffer, pH 7.5, containing 0.1M NaCl, 10 mM CaCl2 and 0.05%. Brij 35 at either room temperature or 37° C. depending on the enzyme. The reaction is stopped by adjusting the pH to 4 using 0.1M sodium acetate buffer and the fluorescence read at an excitation wavelength of 280nm and emission wavelength of 346nm.
(§3) Ki values can be established using the equation for tight-binding inhibition: [formula] where Vo is the initial rate of reaction in the absence of inhibitor, Vi is the initial rate in the presence of inhibitor, [E] is the total enzyme concentration and [I] the total inhibitor concentration in the reaction mixture.
(§4) For stromelysin and collagenase, Ki (app) was assumed to approximate to the true Ki as [S]<<Km for the substrate hydrolysis. For gelatinase the Ki was determined by performing the analyses at several substrate concentrations. A plot of Ki (app) vs. [S] then gave the true Ki as the value of the y-axis intercept.

Collagenase = experiment: Fluorimetric enzyme inhibition assay with peptide substrate (Example A), collagenase; conditions: Ki (app) assumed to approximate true Ki; substrate approx. 20 μm, pH 7.5, overnight
Experimental: as §1, §2, §3, §4

Stromelysin-1 = Stromelysin-1 (Homo sapiens, UniProt P08254); experiment: Fluorimetric enzyme inhibition assay with peptide substrate (Example A), stromelysin-1; conditions: Ki (app) assumed to approximate true Ki; substrate approx. 20 μm, pH 7.5, overnight
Sequence of Stromelysin-1 (P08254 100-477, species assumed): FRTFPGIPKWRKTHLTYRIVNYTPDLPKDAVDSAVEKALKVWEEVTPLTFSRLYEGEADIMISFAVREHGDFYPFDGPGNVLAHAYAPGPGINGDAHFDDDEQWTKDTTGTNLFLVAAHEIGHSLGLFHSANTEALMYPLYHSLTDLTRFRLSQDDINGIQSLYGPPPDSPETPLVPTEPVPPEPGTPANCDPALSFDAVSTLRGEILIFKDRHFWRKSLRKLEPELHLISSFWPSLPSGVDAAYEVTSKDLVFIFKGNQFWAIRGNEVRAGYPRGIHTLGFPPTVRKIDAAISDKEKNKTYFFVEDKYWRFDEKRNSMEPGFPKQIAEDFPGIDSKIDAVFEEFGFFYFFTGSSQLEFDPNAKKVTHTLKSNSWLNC
Experimental: as §1, §2, §3, §4

SMILES: O=C(O)C[C@@H](CCOc1ccccc1)C(=O)N[C@@H](CC1CCCCC1)C(=O)NCCc1ccccc1 [Example 2]
- Ki (Gelatinase -72 KD): 22.2 nM
- Ki (Collagenase): 48800 nM
- Ki (Stromelysin-1): 1510 nM

SMILES: O=C(C[C@@H](CCOc1ccccc1)C(=O)N[C@@H](CC1CCCCC1)C(=O)NCCc1ccccc1)NO [Example 3, 4-(N-Hydroxyamino)-2-(R)-(3-(2-phenoxyethyl)succinyl)-L-β-cyclohexylalanine-N-(2-phenylethyl)amide]
- Ki (Gelatinase -72 KD): 0.273 nM
- Ki (Collagenase): 478 nM
- Ki (Stromelysin-1): 29.7 nM

SMILES: O=C(C[C@@H](CCCc1ccncc1)C(=O)N[C@@H](CC1CCCCC1)C(=O)NCCc1ccccc1)NO [Example 5, {4-(N-hydroxyamino)-2(R)-(3-(4-pyridinium)propyl)succinyl}-L-β-cyclohexylalanine-N-(2-phenylethyl)amide trifluoroacetate]
- Ki (Gelatinase -72 KD): 0.035 nM
- Ki (Collagenase): 186 nM
- Ki (Stromelysin-1): 12.6 nM

SMILES: C[n+]1ccc(CCC[C@H](CC(=O)NO)C(=O)N[C@@H](CC2CCCCC2)C(=O)NCCc2ccccc2)cc1 [Example 6, {4-(N-hydroxyamino)-2-(R)-3-(N-methyl-4-pyridinium)propylsuccinyl}-L-β-cyclohexylalanine-N-(2-phenylethyl)amide iodide]
- Ki (Gelatinase -72 KD): 8.42 nM
- Ki (Collagenase): 22000 nM
- Ki (Stromelysin-1): 681 nM

SMILES: NS(=O)(=O)c1ccc(CCNC(=O)[C@H](CC2CCCCC2)NC(=O)[C@H](CCCc2ccncc2)CC(=O)NO)cc1 [Example 8, {4-(N-Hydroxyamino)-2-(R)-(3-(4-pyridinium)propyl)succinyl}-L-β-cyclohexylalanine-N-(2-(p-sulphonamidophenyl)ethyl)amide trifluoroacetate]
- Ki (Gelatinase -72 KD): 0.059 nM
- Ki (Collagenase): 215 nM
- Ki (Stromelysin-1): 11.8 nM
